In assay [1] the test system is Plutella xylostella (Diamond-back Moth). Description: whole plant or invertebrate. Type of assay: in vivo. As to conditions: foliar; for mortality at 500 ppm: read-out: mortality of larvae of Plutella xylostella; for pest or weed control at 500 ppm: read-out: Plutella % m 500 ppm. From the text: (§1) One or more dilutions of the compounds to be tested were made in 50% aqueous acetone.
(§2) a) Test species: Plutella xylostella (Diamond-back Moth) and Phaedon cochleariae (Mustard Beetle)
(§3) Turnip leaf discs were set in agar in petri-dishes and infected with 10 larvae (2nd instar Plutella or 3rd instar Phaedon). Four replicate dishes were assigned to each treatment and were sprayed under a Potter Tower with the appropriate test dilution. Four or five days after treatment the dishes were removed from the constant temperature (25° C.) room in which they had been held and the mean percentage mortalities of larvae were determined.

Assay [2] deals with Phaedon cochleariae (Mustard Beetle). Description: Test 3 a): leaf disc spray test, Phaedon cochleariae larvae. The format is in vivo. As to conditions: for pest or weed control at 10 ppm / mortality at 5 ppm: Phaedon cochleariae, foliar; for pest or weed control at 10 ppm: read-out: Phaedon % m 10 ppm; for mortality at 5 ppm: read-out: mortality of larvae of Phaedon cochleariae.
From the text: as §1, §2, §3

Where two headings read alike, the source gives them in different places.

One may read the mortality as the share of the test organisms that died. Regarding `N#Cc1c(I)nn(-c2c(Cl)cc(C(F)(F)F)cc2Cl)c1N` [Compound 116, 5-Amino-3-iodo-4-cyano-1-(2,6-dichloro-4-trifluoromethylphenyl)pyrazole], the mortality at 500 ppm in assay [1] was 100%. Besides, the pest or weed control at 10 ppm in assay [2] is 93%.

Consider `CS(=O)(=O)c1c(C(F)(F)F)nn(-c2c(Cl)cc(C(F)(F)F)cc2Cl)c1N` [Compound 130, 5-Amino-1-(2,6-dichloro-4-trifluoromethylphenyl)-4-methanesulphonyl-3-trifluoromethylpyrazole], for which the mortality at 500 ppm in assay [1] is 100%. Besides, in assay [2], the pest or weed control at 10 ppm stood at 100%. With `NC(=O)c1c(C(F)(F)F)nn(-c2c(Cl)cc(C(F)(F)F)cc2Cl)c1N` [Compound 131, 5-Amino-4-carbamoyl-1-(2,6-dichloro-4-trifluoromethylphenyl)-3-trifluoromethylpyrazole], in assay [1], the pest or weed control at 500 ppm came to 58%. In assay [2], the pest or weed control at 10 ppm was determined as 100%. As for `COC(=O)c1c(C(F)(F)F)nn(-c2c(Cl)cc(C(F)(F)F)cc2Cl)c1N` [Compound 132, 5-Amino-1-(2,6-dichloro-4-trifluoromethylphenyl)-4-methoxycarbonyl-3-trifluoromethylpyrazole], in assay [1], the pest or weed control at 500 ppm amounted to 10%. The pest or weed control at 10 ppm in assay [2] is 100%. On to `CN(C)c1c(C#N)c(C(F)(F)F)nn1-c1c(Cl)cc(C(F)(F)F)cc1Cl` [Compound 136, 4-Cyano-1-(2,6-dichloro-4-trifluoromethylphenyl)-5-dimethylamino-3-trifluoromethylpyrazole], for which, in assay [1], the mortality at 500 ppm was 100%. Also, in assay [2], the pest or weed control at 10 ppm worked out at 56%. In the case of `CCOC(=O)CNc1c(C#N)c(C(F)(F)F)nn1-c1c(Cl)cc(C(F)(F)F)cc1Cl` [Compound 137, 4-Cyano-1-(2,6-dichloro-4-trifluoromethylphenyl)-5-ethoxycarbonylmethylamino-3-trifluoromethylpyrazole], the pest or weed control at 500 ppm in assay [1] was found to be 48%. Besides, the pest or weed control at 10 ppm in assay [2] was 100%. On to `CNc1c(C#N)c(C(F)(F)F)nn1-c1c(Cl)cc(C(F)(F)F)cc1Cl` [Compound 138, 4-Cyano-5-methylamino-1-(2,6-dichloro-4-trifluoromethylphenyl)-3-trifluoromethylpyrazole], for which the mortality at 500 ppm in assay [1] was 100%. The pest or weed control at 10 ppm in assay [2] is 100%. Consider `CC(C)(C)C(=O)Nc1c(C#N)c(C(F)(F)F)nn1-c1c(Cl)cc(C(F)(F)F)cc1Cl` [Compound 139, 4-Cyano-1-(2,6-dichloro-4-trifluoromethylphenyl)-5-(2,2-dimethylpropionamido)-3-trifluoromethylpyrazole], for which the mortality at 500 ppm in assay [1] is 100%. For the same compound, in assay [2], the pest or weed control at 10 ppm is 16%. For `Nc1c(Br)c(C(F)(F)F)nn1-c1c(Cl)cc(C(F)(F)F)cc1Cl` [Compound 140, 5-Amino-4-bromo-1-(2,6-dichloro-4-trifluoromethylphenyl)-3-trifluoromethylpyrazole], in that order: 100% and 84%. With `N#Cc1c(C(F)(F)F)nn(-c2c(Cl)cc(C(F)(F)F)cc2Cl)c1Br` [Compound 141, 5-Bromo-4-cyano-1-(2,6-dichloro-4-trifluoromethylphenyl)-3-trifluoromethylpyrazole], the pest or weed control at 500 ppm in assay [1] turned out to be 44%. Moreover, the pest or weed control at 10 ppm in assay [2] turned out to be 100%. In the case of `Nc1c([N+](=O)[O-])c(C(F)(F)F)nn1-c1c(Cl)cc(C(F)(F)F)cc1Cl` [Compound 143, 5-Amino-1-(2,6-dichloro-4-trifluoromethylphenyl)-4-nitro-3-trifluoromethylpyrazole], the mortality at 500 ppm in assay [1] worked out at 100%. Besides, the pest or weed control at 10 ppm in assay [2] was determined as 100%. As for `CCOC(=O)N(C(=O)OCC)c1c(C#N)c(C(F)(F)F)nn1-c1c(Cl)cc(C(F)(F)F)cc1Cl` [Compound 145, 4-Cyano-1-(2,6-dichloro-4-trifluoromethylphenyl)-5-bis(ethoxycarbonyl)amino-3-trifluoromethylpyrazole], the mortality at 500 ppm in assay [1] (Test 3 method (a), application of 500 ppm) is 100%. For the same compound, the pest or weed control at 10 ppm in assay [2] came out at 100%. On to `N#Cc1c(C(F)(F)F)nn(-c2c(Cl)cc(C(F)(F)F)cc2Cl)c1N(C(=O)C1CC1)C(=O)C1CC1` [Compound 146, 4-Cyano-1-(2,6-dichloro-4-trifluoromethylphenyl)-5-bis(cyclopropanecarbonyl)amino-3-trifluoromethylpyrazole], for which the mortality at 500 ppm in assay [1] is 100%. Moreover, the pest or weed control at 10 ppm in assay [2] is 85%. Regarding `N#Cc1c(C(F)(F)F)nn(-c2c(Cl)cc(C(F)(F)F)cc2Cl)c1NC(=O)C1CC1` [Compound 147, 4-Cyano-1-(2,6-dichloro-4-trifluoromethylphenyl)-5-cyclopropanecarbonamido-3-trifluoromethylpyrazole], the “Phaedon % m 10 ppm” value in assay [2] (Tables 1-3, % mortality at 10 ppm) came to 100%. In the case of `Nc1c(Cl)c(C(F)(F)F)nn1-c1c(Cl)cc(C(F)(F)F)cc1Cl` [Compound 148, 5-Amino-4-chloro-1-(2,6-dichloro-4-trifluoromethylphenyl)-3-trifluoromethylpyrazole], the pest or weed control at 500 ppm in assay [1] turned out to be 98%. Also, in assay [2], the pest or weed control at 10 ppm is 21%. With `CC(=O)N(C(=O)C(C)(C)C)c1c(C#N)c(C(F)(F)F)nn1-c1c(Cl)cc(C(F)(F)F)cc1Cl` [Compound 176, 4-Cyano-1-(2,6-dichloro-4-trifluoromethylphenyl)-5-(N-acetyl-N-trimethylacetylamino)-3-trifluoromethylpyrazole], the mortality at 500 ppm in assay [1] came out at 100%. The same measure, in the same setting: with `CCC(=O)N(C(=O)C(C)(C)C)c1c(C#N)c(C(F)(F)F)nn1-c1c(Cl)cc(C(F)(F)F)cc1Cl` [Compound 177, 4-Cyano-1-(2,6-dichloro-4-trifluoromethylphenyl)-5-(N-propionyl-N-trimethylacetylamino)-3-trifluoromethylpyrazole] the figure was 100%. Still for that read-out and setting: next, `CC(C)(C)C(=O)Nc1c(C#N)c(Cl)nn1-c1c(Cl)cc(C(F)(F)F)cc1Cl` [Compound 180, 3-Chloro-1-(2,6-dichloro-4-trifluoromethylphenyl)-4-cyano-5-trimethylacetylaminopyrazole]: 100%; `CCOC(=O)N(C(=O)OCC)c1c(C#N)c(Cl)nn1-c1c(Cl)cc(C(F)(F)F)cc1Cl` [Compound 181, 3-Chloro-1-(2,6-dichloro-4-trifluoromethylphenyl)-4-cyano-5-bis(ethoxycarbonyl)aminopyrazole]: 100%. For `CCOC(=O)Nc1c(C#N)c(Cl)nn1-c1c(Cl)cc(C(F)(F)F)cc1Cl` [Compound 182, 3-Chloro-1-(2,6-dichloro-4-trifluoromethylphenyl)-4-cyano-5-ethoxycarbonylaminopyrazole], the mortality at 5 ppm in assay [2] worked out at 100%.

`CCOC(=O)N(C(C)=O)c1c(C#N)c(C(F)(F)F)nn1-c1c(Cl)cc(C(F)(F)F)cc1Cl` [Compound 184, 5-(N-Acetyl-N-ethoxycarbonylamino)-4-cyano-1-(2,6-dichloro-4-trifluoromethylphenyl)-3-trifluoromethylpyrazole]: the mortality at 500 ppm in assay [1] stood at 100%. Same read-out and setting: with `Nc1c(I)c(C(F)(F)F)nn1-c1c(Cl)cc(C(F)(F)F)cc1Cl` [Compound 189, 5-Amino-1-(2,6-dichloro-4-trifluoromethylphenyl)-4-iodo-3-trifluoromethylpyrazole] the figure was 100%; with `N#Cc1cn(-c2c(Cl)cc(C(F)(F)F)cc2Cl)nc1F` [Compound 195, 4-Cyano-1-(2,6-dichloro-4-trifluoromethylphenyl)-3-fluoropyrazole], 100%. For the compound `CCNS(=O)(=O)c1c(C(F)(F)F)nn(-c2c(Cl)cc(C(F)(F)F)cc2Cl)c1N` [Compound 198, 5-Amino-1-(2,6-dichloro-4-trifluoromethylphenyl)-4-(N-ethylsulphamoyl)-3-trifluoromethylpyrazole], the mortality at 5 ppm in assay [2] worked out at 100%.

On to `CNS(=O)(=O)c1c(C(F)(F)F)nn(-c2c(Cl)cc(C(F)(F)F)cc2Cl)c1N` [Compound 199, 5-Amino-1-(2,6-dichloro-4-trifluoromethylphenyl)-4-(N-methylsulphamoyl)-3-trifluoromethylpyrazole], for which, in assay [2], the mortality at 5 ppm was found to be 100%. Turning to `N#Cc1c(F)nn(-c2c(Cl)cc(C(F)(F)F)cc2Cl)c1N` [Compound 202, 5-Amino-1-(2,6-dichloro-4-trifluoromethylphenyl)-4-cyano-3-fluoropyrazole], in assay [1], the mortality at 500 ppm was 100%. For `C[Si](C)(C)c1c(C#N)c(C(F)(F)F)nn1-c1c(Cl)cc(C(F)(F)F)cc1Cl` [Compound 205, 4-Cyano-1-(2,6-dichloro-4-trifluoromethylphenyl)-3-trifluoromethyl-5-trimethylsilylpyrazole], the mortality at 5 ppm in assay [2] was 100%. For `C[Si](C)(C)Cc1c(C#N)c(C(F)(F)F)nn1-c1c(Cl)cc(C(F)(F)F)cc1Cl` [Compound 211, 4-Cyano-1-(2,6-dichloro-4-trifluoromethylphenyl)-3-trifluoromethyl-5-trimethylsilylmethylpyrazole], in assay [1], the mortality at 500 ppm worked out at 100%. Same read-out and setting: next, `N#Cc1c(C(F)(F)F)nn(-c2c(Cl)cc(C(F)(F)F)cc2Cl)c1C#N` [Compound 213, 1-(2,6-Dichloro-4-trifluoromethylphenyl)-4,5-dicyano-3-trifluoromethylpyrazole]: 100%. For the compound `C[S+]([O-])c1c(C#N)c(C(F)(F)F)nn1-c1c(Cl)cc(C(F)(F)F)cc1Cl` (stereo not drawn) [Compound 220, 4-Cyano-1-(2,6-dichloro-4-trifluoromethylphenyl)-5-methylsulphinyl-3-trifluoromethylpyrazole], the mortality at 5 ppm in assay [2] stood at 100%. For `CCS(=O)(=O)c1c(C(F)(F)F)nn(-c2c(Cl)cc(C(F)(F)F)cc2Cl)c1N` [Compound 221, 5-Amino-1-(2,6-dichloro-4-trifluoromethylphenyl)-4-ethylsulphonyl-3-trifluoromethylpyrazole], the mortality at 5 ppm in assay [2] was 100%.

Source of the values: patent US6372774B1, “Derivatives of N-phenylpyrazoles” (Rhone-Poulenc Agriculture Ltd., priority 1985, dated 2002).
